{
  "source": "patent US8518883B2",
  "about": "“Method of reducing deleterious effects of ischemia by administration of a thrombopoietin receptor ligand” (MCW Research Foundation, Inc., priority 2006, dated 2013)",
  "key": {"Sprague Dawley rats [1]": {"tested_on": "Sprague Dawley rats", "experiment": "Coronary artery ligation model, delayed cardioprotection, Tpo given 24 hours before ischemia", "assay_type": "in vivo, rat", "conditions": "Tpo 0.05 micrograms/kg 24 hours before 30 min regional ischemia, 3 hours reperfusion", "protocol": "Animals used in this study were adult male Sprague Dawley rats (200-350 g, generally 300 g). Animals were housed under standard conditions and allowed to feed ad lib.\nRats were anesthetized with sodium pentobarbital (50 mg/kg i.p.). Heparin was administered (150 U/kg i.p.) to prevent the formation of a thrombus in the coronary vasculature. A myocardial infarction was produced via the ligation of the left main artery using 6-0 prolene suture (See, e.g., Clements-Jewery, et al., supra, 2002; Farkas et al., supra, 2002). The left main coronary artery was identified and ligated with a 5-0 Prolene suture threaded through a polyethylene tube to act as an occluder. A control group included sham operated hearts in which only a suture was passed around the left main coronary artery was performed.\nAnimals were treated with Tpo (0.05 micrograms/kg) administered intraperitoneally and the animals allowed to recover for 24 hours prior to the onset of ischemia. Regional ischemia and reperfusion were induced by tightening the occluder and by releasing it. Hearts were then subjected to 30 minutes regional ischemia followed by 3 hours reperfusion. […]\n(§1) The heart was sectioned in 2 mm segments from apex to atrio-ventricular groove in a transverse fashion. Each segment was recorded and placed in formalin. […] The percentage of infarction of each slide was expressed as a percentage of the entire area of the heart."}, "Sprague Dawley rats [2]": {"tested_on": "Sprague Dawley rats", "experiment": "Coronary artery ligation model, Tpo given after the onset of ischemia", "assay_type": "in vivo, rat", "conditions": "Tpo 0.05 μg/kg 15 min prior to reperfusion (15 min after onset of 30 min regional ischemia)", "protocol": "FIG. 9 is a graphic depiction of the effect of Tpo (0.05 μg/kg) on myocardial infarct size in vivo (as percentage % of area at risk) when administered intravenously 15 minutes after the onset of 30 minutes regional myocardial ischemia in vivo induced by suture ligation of the left main coronary artery and 3 hours reperfusion. *=P<0.05, with Tpo vs. without Tpo (control).\nAnimals used in this study were adult male Sprague Dawley rats (200-350 g, generally 300 g). Animals were housed under standard conditions and allowed to feed ad lib. The Animal Care and Use Committee of the Medical College of Wisconsin approved all procedures performed in accordance with the regulations adopted by the National Institutes of Health.\nA myocardial infarction was produced via the ligation of the left main artery using 6-0 prolene suture (See, e.g., Clements-Jewery, et al., supra, 2002; Farkas, et al., supra, 2002). Rats were anesthetized with sodium pentobarbital (50 mg/kg i.p.). The left main coronary artery was identified and ligated with a 5-0 Prolene suture threaded through a polyethylene tube to act as an occluder. […]\nas §1"}, "[3]": {"tested_on": "healthy individuals and those about to receive chemotherapy", "conditions": "human trials, Tpo doses of 1-5 μg/kg; cited from earlier work"}},
  "data": [
    {"substance": "Thrombopoietin [Tpo]", "values": [
      {"measurement": "Myocardial infarct size", "setting": "Sprague Dawley rats [1]", "value": "decrease"},
      {"measurement": "Myocardial infarct size", "setting": "Sprague Dawley rats [2]", "value": "decrease"},
      {"measurement": "Increase of platelet production", "setting": "[3]", "value": "5-10 times"}
    ]}
  ]
}
